Broadly, the IC50 is the midpoint of a concentration-inhibition curve.

Molecules are shown by their SMILES. Where only a bound is given, the exact number is not on record here.

The target of this assay is BRD4 (Homo sapiens, UniProt O60885). Briefly: Time Resolved Fluorescence Resonance Energy Transfer (TR-FRET) binding assay, FRET BRD4. The conditions noted are these: one of the FRET assays described (BRD4 bromodomain construct not specified); read-out: FRET BRD4 IC50. For orientation: Time-resolved FRET reads energy transfer from a long-lived donor to a nearby acceptor.
Turning to `Cc1nnn(C)c1-c1cnc2c3ccc(N4CCC(C(F)(F)F)CC4)cc3n(C(c3ccccc3)C3CCC(F)(F)CC3)c2c1` (single isomer, unassigned) [Example 77, 1-{5-[(4,4-Difluorocyclohexyl)(phenyl)methyl]-3-(dimethyl-1H-1,2,3-triazol-5-yl)-5H-pyrido[3,2-b]indol-7-yl}-4-(trifluoromethyl)piperidine], the IC50 was less than 1 nM.

In the case of `[2H]C([2H])([2H])c1nnn(C)c1-c1cnc2c3ccc(N4CCOC4=O)c(F)c3n([C@H](c3ccccc3)C3CCOCC3)c2c1` [Example 60, 3-{6-Fluoro-3-[4-(^2H3)methyl-1-methyl-1H-1,2,3-triazol-5-yl]-5-[(S)-oxan-4-yl(phenyl)methyl]-5H-pyrido[3,2-b]indol-7-yl}-1,3-oxazolidin-2-one], the half-maximal inhibitory concentration (IC50) was less than 1 nM.

On to `[2H]C([2H])([2H])c1nnn(C)c1-c1cnc2c3cc(N4CCS(=O)(=O)[C@H](C)C4)ccc3n([C@H](c3ccccc3F)C3CCOCC3)c2c1` [Example 51, (2R)-4-{5-[(S)-(2-Fluorophenyl)(oxan-4-yl)methyl]-3-[4-(^2Ha)methyl-1-methyl-1H-1,2,3-triazol-5-yl]-5H-pyrido[3,2-b]indol-8-yl}-2-methyl-1λ^6,4-thiomorpholine-1,1-dione], for which the IC50 was less than 1 nM.

Turning to `[2H]C([2H])([2H])c1nnn(C)c1-c1cnc2c3c(N4CCCS4(=O)=O)ccc(S(C)(=O)=O)c3n([C@H](c3ccccc3)C3CCOCC3)c2c1` [Example 26, 2-{6-Methanesulfonyl-3-[4-(^2H3)methyl-1-methyl-1H-1,2,3-triazol-5-yl]-5-[(S)-oxan-4-yl(phenyl)methyl]-5H-pyrido[3,2-b]indol-9-yl}-1λ^6,2-thiazolidine-1,1-dione], the concentration for half-maximal inhibition (IC50) was less than 1500 nM.

Take `Cc1nnn(C)c1-c1cnc2c3cc(C4CCNCC4)ccc3n([C@H](c3ccccc3)C3CCOCC3)c2c1` [Example 4, 4-[3-(Dimethyl-1H-1,2,3-triazol-5-yl)-5-[(S)-oxan-4-yl(phenyl)methyl]-5H-pyrido[3,2-b]indol-8-yl]piperidine]: the IC50 was less than 1 nM.

`[2H]C([2H])([2H])c1nnn(C)c1-c1cnc2c3ccc(N4CCCS4(=O)=O)c(F)c3n([C@H](c3ncccc3F)C3CCOCC3)c2c1` [Example 61, 2-{6-Fluoro-5-[(S)-(3-fluoropyridin-2-yl)(oxan-4-yl)methyl]-3-[4-(^2H3)methyl-1-methyl-1H-1,2,3-triazol-5-yl]-5H-pyrido[3,2-b]indol-7-yl}-1λ^6,2-thiazolidine-1,1-dione]: the IC50 was less than 5 nM.

In the case of `Cc1nnn(C)c1-c1cnc2c3ccc(N4CCC(C(F)(F)F)CC4)cc3n([C@H](c3ccccc3)C3CCOCC3)c2c1` [Example 72, 1-[3-(Dimethyl-1H-1,2,3-triazol-5-yl)-5-[(S)-oxan-4-yl(phenyl)methyl]-5H-pyrido[3,2-b]indol-7-yl]-4-(trifluoromethyl)piperidine], the 50% inhibitory concentration (IC50) was less than 1 nM.

On to `Cc1nnn(C)c1-c1cnc2c3ccc(-c4ccnn4C)cc3n([C@H](c3ccccc3)C3CCOCC3)c2c1` [Example 1, 1,4-Dimethyl-5-[7-(1-methyl-1H-pyrazol-5-yl)-5-[(S)-oxan-4-yl(phenyl)methyl]-5H-pyrido[3,2-b]indol-3-yl]-1H-1,2,3-triazole], for which the concentration for half-maximal inhibition (IC50) was less than 5 nM.

As to `Cc1nnn(C)c1-c1cnc2c3cc(N4C[C@@H](C)O[C@@H](C)C4)ccc3n(C(c3ccccc3)C3CCOCC3)c2c1` (stereo in doubt) [Example 3, (2R,6S)-4-[3-(Dimethyl-1H-1,2,3-triazol-5-yl)-5-[(R)-oxan-4-yl(phenyl)methyl]-5H-pyrido[3,2-b]indol-8-yl]-2,6-dimethylmorpholine], the half-maximal inhibitory concentration (IC50) was less than 5 nM.

On to `[2H]C([2H])([2H])c1nnn(C)c1-c1cnc2c3cc(N4CCc5ccccc5C4)ccc3n([C@H](c3ccc(F)cc3)C3CCOCC3)c2c1` [Example 43, 2-{5-[(S)-(4-Fluorophenyl)(oxan-4-yl)methyl]-3-[4-(^2H3)methyl-1-methyl-1H-1,2,3-triazol-5-yl]-5H-pyrido[3,2-b]indol-8-yl}-1,2,3,4-tetrahydroisoquinoline], for which the half-inhibitory concentration (IC50) was less than 5 nM.

Regarding `Cc1nnn(C)c1-c1cnc2c3ccc(N4CCC(F)(F)CC4)cc3n([C@H](c3ccccc3)C3CCOCC3)c2c1` [Example 71, 1-[3-(Dimethyl-1H-1,2,3-triazol-5-yl)-5-[(S)-oxan-4-yl(phenyl)methyl]-5H-pyrido[3,2-b]indol-7-yl]-4,4-difluoropiperidine], the IC50 is less than 1 nM.

In the case of `Cc1nnn(C)c1-c1cnc2c3ccc(C4(C)CNC(=O)O4)cc3n([C@H](c3ccccc3)C3CCOCC3)c2c1` (single isomer, unassigned) [Example 10], the IC50 is less than 5 nM.

With `Cc1nnn(C)c1-c1cnc2c3ccc(-c4ccon4)cc3n([C@H](c3ccccc3)C3CCOCC3)c2c1` [Example 2, 1,4-Dimethyl-5-{5-[(S)-oxan-4-yl(phenyl)methyl]-7-(1,2-oxazol-3-yl)-5H-pyrido[3,2-b]indol-3-yl}-1H-1,2,3-triazole], the half-maximal inhibitory concentration (IC50) was less than 5 nM.

Regarding `[2H]C([2H])([2H])Oc1nnn(C)c1-c1ccc2c3ncc(-c4c(OC([2H])([2H])[2H])nnn4C)cc3n([C@H](c3ccccc3)C3CCOCC3)c2c1` [Example 29, 4-(^2H3)Methoxy-5-{7-[4-(^2H)methoxy-1-methyl-1H-1,2,3-triazol-5-yl]-5-[(S)-oxan-4-yl-(phenyl)methyl]-5H-pyrido[3,2-b]indol-3-yl}-1-methyl-1H-1,2,3-triazole], the 50% inhibitory concentration (IC50) was less than 5 nM.

`[2H]C([2H])([2H])c1nnn(C)c1-c1cnc2c3c(N4CCCS4(=O)=O)ccc(S(C)(=O)=O)c3n(C(c3ncccc3F)C3CCOCC3)c2c1` (stereo not shown) [Example 35, 2-{5-[(3-Fluoropyridin-2-yl)(oxan-4-yl)methyl]-6-methanesulfonyl-3-[4-(^2H3)methyl-1-methyl-1H-1,2,3-triazol-5-yl]-5H-pyrido[3,2-b]indol-9-yl}-1λ^6,2-thiazolidine-1,1-dione]: the half-inhibitory concentration (IC50) is less than 1 nM.

For `[2H]C([2H])([2H])c1nnn(C)c1-c1cnc2c3ccc(N4CCC(F)(F)CC4)cc3n(C(c3ncccc3F)C3CCOCC3)c2c1` (stereo not shown) [Example 65, 2-{[7-(4,4-Difluoropiperidin-1-yl)-3-[4-(^2H3)methyl-1-methyl-1H-1,2,3-triazol-5-yl]-5H-pyrido[3,2-b]indol-5-yl](oxan-4-yl)methyl}-3-fluoropyridine], the IC50 is less than 1 nM.

Regarding `Cc1nnn(C)c1-c1cnc2c3c(N4CCNCC4)ccc(S(C)(=O)=O)c3n([C@H](c3ccccc3)C3CCOCC3)c2c1` [Example 21, 1-[3-(Dimethyl-1H-1,2,3-triazol-5-yl)-6-methanesulfonyl-5-[(S)-oxan-4-yl(phenyl)methyl]-5H-pyrido[3,2-b]indol-9-yl]piperazine], the concentration for half-maximal inhibition (IC50) is less than 5 nM.

On to `[2H]C([2H])([2H])c1nnn(C)c1-c1cnc2c3ccc(N4CCC(S(C)(=O)=O)CC4)cc3n(C(c3ncccc3F)C3CCOCC3)c2c1` (stereo not shown) [Example 70, 3-Fluoro-2-{[7-(4-methanesulfonylpiperidin-1-yl)-3-[4-(^2H3)methyl-1-methyl-1H-1,2,3-triazol-5-yl]-5H-pyrido[3,2-b]indol-5-yl](oxan-4-yl)methyl}pyridine], for which the IC50 was less than 1 nM.

Consider `[2H]C([2H])([2H])c1nnn(C)c1-c1cnc2c3cc(N4CCS(=O)(=O)[C@@H](C)C4)ccc3n([C@H](c3ccccc3F)C3CCOCC3)c2c1` [Example 52, (2S)-4-{5-[(S)-(2-Fluorophenyl)(oxan-4-yl)methyl]-3-[4-(^2H3)methyl-1-methyl-1H-1,2,3-triazol-5-yl]-5H-pyrido[3,2-b]indol-8-yl}-2-methyl-11λ^6,4-thiomorpholine-1,1-dione], for which the concentration for half-maximal inhibition (IC50) was less than 1 nM.

As for `Cc1nnn(C)c1-c1cnc2c3c(N4CCCCS4(=O)=O)ccc(S(C)(=O)=O)c3n([C@H](c3ccccc3)C3CCOCC3)c2c1` [Example 20, 2-[3-(Dimethyl-1H-1,2,3-triazol-5-yl)-6-methanesulfonyl-5-[(S)-oxan-4-yl(phenyl)methyl]-5H-pyrido[3,2-b]indol-9-yl]-1λ^6,2-thiazinane-1,1-dione], the IC50 was less than 1 nM.

For the compound `[2H]C([2H])([2H])c1nnn(C)c1-c1cnc2c3c(N4CCC(F)(F)CC4)ccc(S(C)(=O)=O)c3n(C(c3ccccc3)C3CCC(F)(F)CC3)c2c1` (stereo not shown) [Example 73, 1-{5-[(4,4-Difluorocyclohexyl)(phenyl)methyl]-6-methanesulfonyl-3-[4-(^2H3)methyl-1-methyl-1H-1,2,3-triazol-5-yl]-5H-pyrido[3,2-b]indol-9-yl}-4,4-difluoropiperidine], the IC50 was less than 1500 nM.

`[2H]C([2H])([2H])c1nnn(C)c1-c1cnc2c3ccc(N4CCN(S(C)(=O)=O)CC4)cc3n([C@H](c3ccccc3)C3CCOCC3)c2c1` [Example 46, 1-Methanesulfonyl-4-{3-[4-(^2H3)methyl-1-methyl-1H-1,2,3-triazol-5-yl]-5-[(S)-oxan-4-yl(phenyl)methyl]-5H-pyrido[3,2-b]indol-7-yl}piperazine]: the IC50 is less than 1 nM.

As for `[2H]C([2H])([2H])c1nnn(C)c1-c1cnc2c3ccc(N4CCNC4=O)c(F)c3n([C@H](c3ccccc3)C3CCOCC3)c2c1` [Example 59, 1-{6-Fluoro-3-[4-(^2H3)methyl-1-methyl-1H-1,2,3-triazol-5-yl]-5-[(S)-oxan-4-yl(phenyl)methyl]-5H-pyrido[3,2-b]indol-7-yl}imidazolidin-2-one], the IC50 is less than 5 nM.

Take `[2H]C([2H])([2H])c1nnn(C)c1-c1cnc2c3cc(N4CCS(=O)(=O)CC4)ccc3n([C@H](c3ccc(F)cc3)C3CCOCC3)c2c1` [Example 39, 4-{5-[(S)-(4-Fluorophenyl)(oxan-4-yl)methyl]-3-[4-(^2H3)methyl-1-methyl-1H-1,2,3-triazol-5-yl]-5H-pyrido[3,2-b]indol-8-yl}-1λ^6-thiomorpholine-1,1-dione]: the IC50 was less than 5 nM.

Regarding `[2H]C([2H])([2H])n1nnc(OC)c1-c1ccc2c3ncc(-c4c(OC)nnn4C([2H])([2H])[2H])cc3n([C@H](c3ccccc3)C3CCOCC3)c2c1` [Example 30, 4-Methoxy-5-{7-[4-methoxy-1-(^2H3)methyl-1H-1,2,3-triazol-5-yl]-5-[(S)-oxan-4-yl(phenyl)-methyl]-5H-pyrido[3,2-b]indol-3-yl}-1-(^2H3)methyl-1H-1,2,3-triazole], the IC50 is less than 5 nM.

These data come from patent publication US10174024B2, “5H-pyrido[3,2-B]indole compounds as anticancer agents” (BRISTOL-MYERS SQUIBB COMPANY, priority 2015, dated 2019).
